Assay results: ChEMBL document CHEMBL4837220, “Development of tricyclic N-benzyl-4-hydroxybutanamide derivatives as inhibitors of GABA transporters mGAT1-4 with anticonvulsant, antinociceptive, and antidepressant activity” (Eur J Med Chem, 2021)
The source made the active and inactive calls.

Experiments:
[1] = target: T1, Sodium- and chloride-dependent GABA transporter 1 (Mus musculus, UniProt P31648); assay: Inhibition of mouse GAT1 expressed in human HEK293 cell line assessed as inhibition of [3H]GABA uptake measured after 40 mins by […]; format: cell-based
[2] = target: Sodium- and chloride-dependent GABA transporter 1 (Mus musculus) (UniProt P31648); assay: Residual NO711 binding to mouse GAT1 expressed in human HEK293 cell line at 100 uM by MS binding assay relative to control
GABA transporter 4 = target: T2, GABA transporter 4 (Mus musculus, UniProt P31650); assay: Inhibition of mouse GAT4 expressed in human HEK293 cell line assessed as inhibition of [3H]GABA uptake measured after 40 mins by […]; format: cell-based
T2 sequence (P31650 whole entry): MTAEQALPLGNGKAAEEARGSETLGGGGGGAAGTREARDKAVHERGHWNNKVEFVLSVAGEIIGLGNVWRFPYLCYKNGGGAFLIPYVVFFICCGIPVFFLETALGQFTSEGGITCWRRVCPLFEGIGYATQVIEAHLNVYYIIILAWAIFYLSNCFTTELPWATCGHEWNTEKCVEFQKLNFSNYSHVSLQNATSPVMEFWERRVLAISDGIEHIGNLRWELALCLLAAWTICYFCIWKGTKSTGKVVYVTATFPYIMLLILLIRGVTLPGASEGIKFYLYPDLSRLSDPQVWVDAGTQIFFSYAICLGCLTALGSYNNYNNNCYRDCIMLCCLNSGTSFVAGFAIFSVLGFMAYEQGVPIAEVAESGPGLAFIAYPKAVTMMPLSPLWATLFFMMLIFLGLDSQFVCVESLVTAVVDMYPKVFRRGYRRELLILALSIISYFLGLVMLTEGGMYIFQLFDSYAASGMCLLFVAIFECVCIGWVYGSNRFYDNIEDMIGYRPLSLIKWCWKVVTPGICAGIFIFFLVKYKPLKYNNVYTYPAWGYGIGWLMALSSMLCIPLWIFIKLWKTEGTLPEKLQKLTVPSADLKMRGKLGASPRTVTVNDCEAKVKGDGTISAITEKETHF

GABA transporter 2 = target: T3, GABA transporter 2 (Mus musculus, UniProt P31651); assay: Inhibition of mouse GAT2 expressed in human HEK293 cell line assessed as inhibition of [3H]GABA uptake measured after 40 mins by […]; format: cell-based
T3 sequence (P31651 whole entry): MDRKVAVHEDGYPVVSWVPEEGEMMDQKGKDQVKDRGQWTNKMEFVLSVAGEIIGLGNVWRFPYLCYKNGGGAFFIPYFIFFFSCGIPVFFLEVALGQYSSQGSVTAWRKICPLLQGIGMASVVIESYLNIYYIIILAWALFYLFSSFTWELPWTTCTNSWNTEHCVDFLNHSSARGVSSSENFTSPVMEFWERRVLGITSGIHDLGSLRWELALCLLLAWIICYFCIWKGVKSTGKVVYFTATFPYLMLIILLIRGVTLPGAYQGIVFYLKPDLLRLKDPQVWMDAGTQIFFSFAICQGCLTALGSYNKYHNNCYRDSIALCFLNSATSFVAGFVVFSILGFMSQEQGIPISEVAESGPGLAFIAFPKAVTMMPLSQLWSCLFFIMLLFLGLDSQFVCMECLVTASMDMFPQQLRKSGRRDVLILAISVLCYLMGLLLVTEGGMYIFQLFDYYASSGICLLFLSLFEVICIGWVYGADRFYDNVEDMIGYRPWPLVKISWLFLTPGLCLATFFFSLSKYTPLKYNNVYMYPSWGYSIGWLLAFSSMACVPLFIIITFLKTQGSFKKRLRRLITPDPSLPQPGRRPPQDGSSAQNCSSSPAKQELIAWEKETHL

[3] = target: T1, Sodium- and chloride-dependent GABA transporter 1; assay: Inhibition of NO711 binding to mouse GAT1 expressed in human HEK293 cell line by MS binding assay
[4] = target: GABA transporter 3 (Mus musculus, Slc6a13); assay: Inhibition of mouse GAT3 expressed in human HEK293 cell line assessed as inhibition of [3H]GABA uptake measured after 40 mins by […]
Mus musculus = assay: Anticonvulsant activity in CD-1 mouse assessed as elevation of seizure threshold at 10 mg/kg, ip measured by electroconvulsive threshold test relative to control; format: functional, organism-based
[5] = target: T4, GABA transporter 2 (Mus musculus) (UniProt P31651); assay: Inhibition of mouse GAT2 expressed in human HEK293 cell line assessed as residual [3H]GABA uptake at 100 uM measured after 40 mins by […]
T4 sequence (whole entry): T3 sequence (P31651 whole entry)

## Cc1ccc(CNC(=O)C(CCO)N(C)CCC=C2c3ccccc3C=Cc3ccccc32)cc1 (centres undefined)
[1]
  IC50: 27.5 µM
[2]
  residual activity: 55%
GABA transporter 4
  IC50: 9.12 µM
GABA transporter 2
  IC50: 9.77 µM

## CN(CCC=C1c2ccccc2CCc2ccccc21)C(CCN)C(=O)NCc1ccc(Cl)cc1 (centres undefined)
[1]
  IC50: 6.31 µM
[3]
  pKi: 4.6
GABA transporter 4
  IC50: 5.62 µM
GABA transporter 2
  IC50: 11 µM

## CN(CCC=C1c2ccccc2C=Cc2ccccc21)C(CCO)C(=O)NCc1ccc(F)cc1 (centres undefined)
[1]
  IC50: 21.9 µM
[2]
  residual activity: 71%
GABA transporter 4
  IC50: 13.5 µM
GABA transporter 2
  IC50: 10.2 µM

## O=C(O)C1=CCCN(CCO/N=C/c2ccccc2-c2ccc(Cl)cc2Cl)C1
[3]
  pKi: 8.29
[4]
  pIC50: 4.35
Mus musculus
  Activity: inactive
GABA transporter 2
  IC50: 49 µM

## CC(=O)NCCC(C(=O)NCc1ccccc1)N(C)CCC=C1c2ccccc2CCc2ccccc21 (centres undefined)
[1]
  IC50: 28.8 µM
[2]
  residual activity: 77%
GABA transporter 4
  IC50: 17.8 µM
GABA transporter 2
  IC50: 37.2 µM

## CN(CCC=C1c2ccccc2-c2ccccc21)C(CCO)C(=O)NCc1ccccc1 (centres undefined)
[1]
  IC50: 24 µM
[2]
  residual activity: 75%
GABA transporter 4
  IC50: 25.1 µM
GABA transporter 2
  IC50: 17.8 µM

## CN(CCC=C1c2ccccc2CCc2ccccc21)C(CCO)C(=O)NCc1ccccc1 (centres undefined)
[1]
  IC50: 20 µM
[2]
  residual activity: 51%
GABA transporter 4
  IC50: 17 µM
GABA transporter 2
  IC50: 9.12 µM

## CN(CCC=C1c2ccccc2CCc2ccccc21)C(CCO)C(=O)NCc1ccc(F)cc1 (centres undefined)
[1]
  IC50: 21.9 µM
[2]
  residual activity: 81%
GABA transporter 4
  IC50: 13.2 µM
GABA transporter 2
  IC50: 5.75 µM

## COc1ccc(C(OCCN2CCC[C@H](C(=O)O)C2)(c2ccc(OC)cc2)c2ccc(-c3ccc(C=O)cc3)cc2)cc1
[1]
  IC50: 72.4 µM
[2]
  residual activity: 77%
GABA transporter 4
  IC50: 1.29 µM
[5]
  residual activity: 73%

## CN(CCC=C(c1ccccc1)c1ccccc1)C(CCO)C(=O)NCc1ccccc1Cl (centres undefined)
[2]
  residual activity: 54%
[4]
  pIC50: 5.14
GABA transporter 4
  IC50: 10 µM
GABA transporter 2
  IC50: 12.6 µM

## CN(CCC=C1c2ccccc2-c2ccccc21)C(CCO)C(=O)NCc1ccc(Cl)cc1 (centres undefined)
[1]
  IC50: 42.7 µM
[2]
  residual activity: 91%
GABA transporter 4
  IC50: 44.7 µM
GABA transporter 2
  IC50: 32.4 µM

## CC(=O)NCCC(C(=O)NCc1ccc(C)cc1)N(C)CCC=C1c2ccccc2CCc2ccccc21 (centres undefined)
[1]
  IC50: 13.8 µM
[2]
  residual activity: 69%
GABA transporter 4
  IC50: 13.5 µM
GABA transporter 2
  IC50: 15.5 µM

## CN(CCC=C1c2ccccc2C=Cc2ccccc21)C(CCO)C(=O)NCc1ccccc1Cl (centres undefined)
[1]
  IC50: 20.9 µM
[2]
  residual activity: 69%
GABA transporter 4
  IC50: 9.55 µM
GABA transporter 2
  IC50: 6.76 µM

## CN(CCC=C1c2ccccc2C=Cc2ccccc21)C(CCO)C(=O)NCc1ccc(Cl)cc1 (centres undefined)
[1]
  IC50: 69.2 µM
[2]
  residual activity: 63%
GABA transporter 4
  IC50: 15.8 µM
GABA transporter 2
  IC50: 14.5 µM

## CC(=O)NCCC(C(=O)NCc1ccccc1Cl)N(C)CCC=C1c2ccccc2CCc2ccccc21 (centres undefined)
[1]
  IC50: 28.8 µM
[2]
  residual activity: 87%
GABA transporter 4
  IC50: 18.6 µM
GABA transporter 2
  IC50: 26.3 µM

## CN(CCC=C1c2ccccc2CCc2ccccc21)C(CCN)C(=O)NCc1ccccc1Cl (centres undefined)
[1]
  IC50: 6.61 µM
[3]
  pKi: 4.87
GABA transporter 4
  IC50: 4.9 µM
GABA transporter 2
  IC50: 13.5 µM

## CN(CCC=C1c2ccccc2-c2ccccc21)C(CCO)C(=O)NCc1ccc(F)cc1 (centres undefined)
[1]
  IC50: 37.2 µM
[2]
  residual activity: 90%
GABA transporter 4
  IC50: 35.5 µM
GABA transporter 2
  IC50: 25.7 µM

## CN(CCC=C1c2ccccc2CCc2ccccc21)C(CCN)C(=O)NCc1ccccc1 (centres undefined)
[1]
  IC50: 8.13 µM
[3]
  pKi: 4.78
GABA transporter 4
  IC50: 4.68 µM
GABA transporter 2
  IC50: 9.55 µM

## O=C(O)C1CCCN(CCC=C2c3ccccc3CCc3ccccc32)C1 (centres undefined)
[1]
  IC50: 13.5 µM

## CC(=O)NCCC(C(=O)NCc1ccccc1Cl)N(C)CCC=C(c1sccc1C)c1sccc1C (centres undefined)
[4]
  pIC50: 5.61
GABA transporter 2
  IC50: 4.47 µM

## CC(=O)NCCC(C(=O)NCc1ccc(F)cc1)N(C)CCC=C1c2ccccc2CCc2ccccc21 (centres undefined)
[1]
  IC50: 13.8 µM
[2]
  residual activity: 71%
GABA transporter 4
  IC50: 11.2 µM
GABA transporter 2
  IC50: 19.5 µM

## Cc1ccc(CNC(=O)C(CCN)N(C)CCC=C2c3ccccc3CCc3ccccc32)cc1 (centres undefined)
[1]
  IC50: 7.24 µM
[3]
  pKi: 5.14
GABA transporter 4
  IC50: 6.46 µM
GABA transporter 2
  IC50: 11.2 µM

## CN(CCC=C1c2ccccc2CCc2ccccc21)C(CCO)C(=O)NCc1ccccc1Cl (centres undefined)
[1]
  IC50: 25.1 µM
[2]
  residual activity: 82%
GABA transporter 4
  IC50: 15.8 µM
GABA transporter 2
  IC50: 11 µM

## CN(CCC=C1c2ccccc2-c2ccccc21)C(CCO)C(=O)NCc1ccccc1Cl (centres undefined)
[1]
  IC50: 33.1 µM
[2]
  residual activity: 93%
GABA transporter 4
  IC50: 26.9 µM
GABA transporter 2
  IC50: 25.7 µM

## Cc1ccc(CNC(=O)C(CCO)N(C)CCC=C2c3ccccc3-c3ccccc32)cc1 (centres undefined)
[1]
  IC50: 31.6 µM
[2]
  residual activity: 99%
GABA transporter 4
  IC50: 30.9 µM
GABA transporter 2
  IC50: 30.2 µM

## CN(CCC=C1c2ccccc2CCc2ccccc21)C(CCN)C(=O)NCc1ccc(F)cc1 (centres undefined)
[1]
  IC50: 6.31 µM
[3]
  pKi: 4.96
GABA transporter 4
  IC50: 4.37 µM
GABA transporter 2
  IC50: 11.7 µM

## CC(=O)NCCC(C(=O)NCc1ccc(Cl)cc1)N(C)CCC=C1c2ccccc2CCc2ccccc21 (centres undefined)
[1]
  IC50: 28.2 µM
[2]
  residual activity: 90%
GABA transporter 4
  IC50: 12.6 µM
GABA transporter 2
  IC50: 47.9 µM

## CN(CCC=C(c1ccccc1)c1ccccc1)C(CCN)C(=O)NCc1ccccc1Cl (centres undefined)
[3]
  pKi: 4.96

## CN(CCC=C1c2ccccc2CCc2ccccc21)C(CCO)C(=O)NCc1ccc(Cl)cc1 (centres undefined)
[1]
  IC50: 10 µM
[2]
  residual activity: 79%
GABA transporter 4
  IC50: 15.8 µM
GABA transporter 2
  IC50: 7.76 µM

## O=C(O)[C@@H]1CCCN(CCC=C2c3ccccc3-c3ccccc32)C1
[1]
  IC50: 2 µM
